Test results: US7612064B2, “Sulfopyrroles” (Takeda Pharmaceutical Company Limited, priority 2003, dated 2009)

Experiments:
[1] = Hoechst 33342 nuclear staining; type: cell-based; details: for Hoechst 33342 nuclear staining score, H460: H460 cells; for Hoechst 33342 nuclear staining score, HeLa: HeLa cells; for Hoechst 33342 nuclear staining score, Jily: Jily cells; for Hoechst 33342 nuclear staining score, Jurkat: Jurkat cells; for Hoechst 33342 nuclear staining score, MRC5: MRC5 cells;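 as to all read-outs here: apoptotic nuclei scored 0 none 1 weak under 50% of cells 2 strong over 50% of cells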
Outline: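 After a further 30 min incubation, plates were inspected on a standard inverted fluorescence microscope. The fraction of apoptotic nuclei and other apoptosis-specific morphology were scored as 0 for no activity, 1 for weak activity in less than 50% of the cells, and 2 for strong activity in more than 50% of the cells.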

Jurkat = experiment: MTS proliferation assay; type: cell-based, human; details: 72 h
Outline: (§1)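 Proliferation is assessed by MTS conversion, measured as 492 nm absorption. Cells are treated for three days (72 h) with four compound concentrations between 0.3 and 10 μM.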

HeLa = experiment: MTS proliferation assay; type: cell-based, human; details: 72 h
Outline: as §1

Jily = experiment: MTS proliferation assay; type: cell-based; details: 72 h
Outline: as §1

MRC5 = experiment: MTS proliferation assay; type: cell-based; details: MRC5, 72 h
Outline: as §1

Structure (SMILES) | Hoechst 33342 nuclear staining score, H460 ([1]; conc 0.1) | Hoechst 33342 nuclear staining score, H460 ([1]; conc 0.3) | Hoechst 33342 nuclear staining score, H460 ([1]; conc 1) | Hoechst 33342 nuclear staining score, H460 ([1]; conc 3) | Hoechst 33342 nuclear staining score, HeLa ([1]; conc 0.1) | Hoechst 33342 nuclear staining score, HeLa ([1]; conc 0.3) | Hoechst 33342 nuclear staining score, HeLa ([1]; conc 1) | Hoechst 33342 nuclear staining score, HeLa ([1]; conc 3) | Hoechst 33342 nuclear staining score, Jily ([1]; conc 0.1) | Hoechst 33342 nuclear staining score, Jily ([1]; conc 0.3) | Hoechst 33342 nuclear staining score, Jily ([1]; conc 1) | Hoechst 33342 nuclear staining score, Jily ([1]; conc 3) | Hoechst 33342 nuclear staining score, Jurkat ([1]; conc 0.1) | Hoechst 33342 nuclear staining score, Jurkat ([1]; conc 0.3) | Hoechst 33342 nuclear staining score, Jurkat ([1]; conc 1) | Hoechst 33342 nuclear staining score, Jurkat ([1]; conc 3) | Hoechst 33342 nuclear staining score, MRC5 ([1]; conc 0.1) | Hoechst 33342 nuclear staining score, MRC5 ([1]; conc 0.3) | Hoechst 33342 nuclear staining score, MRC5 ([1]; conc 1) | Hoechst 33342 nuclear staining score, MRC5 ([1]; conc 3) | further results
COc1cc(-c2cc(-c3cncc(C(=O)NC(C)CO)c3)cn2S(=O)(=O)c2ccc(C)cc2)cc(OC)c1OC.Cl (stereo not drawn) [Example 63] | 0 | 0 | 0 | 0 | 0 | 0 | 0 | 2 (strong activity comprising more than 50% of the cells) | 0 | 0 | 0 | 0 | 0 | 0 | 2 (strong activity comprising more than 50% of the cells) | 2 (strong activity comprising more than 50% of the cells) | 0 | 0 | 0 | 0 | Hoechst 33342 nuclear staining score, PBLs ([1]; conc 0.1): 0; Hoechst 33342 nuclear staining score, PBLs ([1]; conc 0.3): 0; Hoechst 33342 nuclear staining score, PBLs ([1]; conc 1): 0; Hoechst 33342 nuclear staining score, PBLs ([1]; conc 3): 0; IC50 (Jurkat): < 1000 nM; IC50 (HeLa): < 1000 nM; IC50 (Jily): < 1000 nM; IC50 (MRC5): < 1000 nM
COc1cc(-c2cc(-c3cccnc3)cn2S(=O)(=O)c2ccc(C(C)(C)C)cc2)cc(OC)c1OC [Example 83] | 0 | 0 | 0 | 0 | 0 | 0 | 0 | 0 | 0 | 0 | 0 | 0 | 0 | 0 | 0 | 0 | 0 | 0 | 0 | 0 | Hoechst 33342 nuclear staining score, PBLs ([1]; conc 0.1): 0; Hoechst 33342 nuclear staining score, PBLs ([1]; conc 0.3): 0; Hoechst 33342 nuclear staining score, PBLs ([1]; conc 1): 0; Hoechst 33342 nuclear staining score, PBLs ([1]; conc 3): 0; IC50 (Jurkat): > 1000 nM; IC50 (HeLa): > 1000 nM; IC50 (Jily): > 1000 nM; IC50 (MRC5): > 1000 nM
COc1ccc(S(=O)(=O)n2cc(-c3ccc(N)nc3)cc2-c2cc(OC)ccc2OC)cc1 [Example 101] | 0 | 2 (strong activity comprising more than 50% of the cells) | 2 (strong activity comprising more than 50% of the cells) | 2 (strong activity comprising more than 50% of the cells) | 0 | 2 (strong activity comprising more than 50% of the cells) | 2 (strong activity comprising more than 50% of the cells) | 2 (strong activity comprising more than 50% of the cells) | 0 | 2 (strong activity comprising more than 50% of the cells) | 2 (strong activity comprising more than 50% of the cells) | 2 (strong activity comprising more than 50% of the cells) | 0 | 2 (strong activity comprising more than 50% of the cells) | 2 (strong activity comprising more than 50% of the cells) | 2 (strong activity comprising more than 50% of the cells) | 0 | 2 (strong activity comprising more than 50% of the cells) | 2 (strong activity comprising more than 50% of the cells) | 2 (strong activity comprising more than 50% of the cells) | Hoechst 33342 nuclear staining score, PBLs ([1]; conc 0.1): 0; Hoechst 33342 nuclear staining score, PBLs ([1]; conc 0.3): 0; Hoechst 33342 nuclear staining score, PBLs ([1]; conc 1): 0; Hoechst 33342 nuclear staining score, PBLs ([1]; conc 3): 0; IC50 (Jurkat): < 200 nM; IC50 (HeLa): < 1000 nM; IC50 (Jily): < 200 nM; IC50 (MRC5): < 1000 nM
COc1ccc(S(=O)(=O)n2cc(-c3cncc(C(N)=O)c3)cc2-c2ccc(OC)cc2OC)cc1 [Example 106] | 0 | 0 | 1 (weak activity comprising less than 50% of the cells) | 2 (strong activity comprising more than 50% of the cells) | 0 | 0 | 1 (weak activity comprising less than 50% of the cells) | 2 (strong activity comprising more than 50% of the cells) | 0 | 0 | 1 (weak activity comprising less than 50% of the cells) | 2 (strong activity comprising more than 50% of the cells) | 0 | 0 | 2 (strong activity comprising more than 50% of the cells) | 2 (strong activity comprising more than 50% of the cells) | 0 | 0 | 0 | 1 (weak activity comprising less than 50% of the cells) | Hoechst 33342 nuclear staining score, PBLs ([1]; conc 0.1): 0; Hoechst 33342 nuclear staining score, PBLs ([1]; conc 0.3): 0; Hoechst 33342 nuclear staining score, PBLs ([1]; conc 1): 0; Hoechst 33342 nuclear staining score, PBLs ([1]; conc 3): 0; IC50 (Jurkat): > 1000 nM; IC50 (HeLa): > 1000 nM; IC50 (Jily): > 1000 nM; IC50 (MRC5): > 1000 nM
COc1ccc(S(=O)(=O)n2cc(CNc3ccc(N4CCOCC4)cc3)cc2-c2c(OC)cc(OC)cc2OC)cc1 [Example 99] | 0 | 0 | 2 (strong activity comprising more than 50% of the cells) | 2 (strong activity comprising more than 50% of the cells) | 0 | 0 | 2 (strong activity comprising more than 50% of the cells) | 2 (strong activity comprising more than 50% of the cells) | 0 | 0 | 2 (strong activity comprising more than 50% of the cells) | 2 (strong activity comprising more than 50% of the cells) | 0 | 0 | 2 (strong activity comprising more than 50% of the cells) | 2 (strong activity comprising more than 50% of the cells) | 0 | 0 | 1 (weak activity comprising less than 50% of the cells) | 1 (weak activity comprising less than 50% of the cells) | Hoechst 33342 nuclear staining score, PBLs ([1]; conc 0.1): 0; Hoechst 33342 nuclear staining score, PBLs ([1]; conc 0.3): 0; Hoechst 33342 nuclear staining score, PBLs ([1]; conc 1): 0; Hoechst 33342 nuclear staining score, PBLs ([1]; conc 3): 0; IC50 (Jurkat): < 1000 nM; IC50 (HeLa): < 1000 nM; IC50 (Jily): < 1000 nM; IC50 (MRC5): > 1000 nM
COc1cc(-c2cc(-c3cccnc3)cn2S(=O)(=O)c2ccc3c(c2)CCO3)cc(OC)c1OC [Example 86] | 0 | 0 | 0 | 2 (strong activity comprising more than 50% of the cells) | 0 | 0 | 0 | 1 (weak activity comprising less than 50% of the cells) | 0 | 0 | 1 (weak activity comprising less than 50% of the cells) | 2 (strong activity comprising more than 50% of the cells) | 0 | 0 | 2 (strong activity comprising more than 50% of the cells) | 2 (strong activity comprising more than 50% of the cells) | 0 | 0 | 0 | 1 (weak activity comprising less than 50% of the cells) | Hoechst 33342 nuclear staining score, PBLs ([1]; conc 0.1): 0; Hoechst 33342 nuclear staining score, PBLs ([1]; conc 0.3): 0; Hoechst 33342 nuclear staining score, PBLs ([1]; conc 1): 0; Hoechst 33342 nuclear staining score, PBLs ([1]; conc 3): 0; IC50 (Jurkat): < 1000 nM; IC50 (HeLa): > 1000 nM; IC50 (Jily): < 1000 nM; IC50 (MRC5): > 1000 nM
